# Results taken from US20230357179A1, “RAF KINASE INHIBITORS AND METHODS OF USE THEREOF” (Deciphera Pharmaceuticals, LLC, priority 2021, published 2023).
# Experiments:
# [1] = target: T1, A-Raf kinase (Homo sapiens, UniProt P10398, Y301D/Y302D); assay: Biochemical assay for A-Raf.1 (coupled pyruvate kinase/lactate dehydrogenase); conditions: read-out: ARAF.1 IC50
# T1 construct: purchased Sigma
# How it was run: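 IC50 values came from four-parameter sigmoidal fits of percent inhibition, using rates over the 4 to 5 h window of continuous A340 readings (6 h, 30° C). The coupled PK/LDH system tracked NADH oxidation during 5.55 nM A-Raf activity on 30.1 nM MEK at 1 mM ATP, buffer pH 7.5.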
# [2] = target: T2, B-Raf kinase (Homo sapiens, UniProt P15056); assay: Biochemical assay for B-Raf.1 (coupled pyruvate kinase/lactate dehydrogenase); conditions: read-out: BRAF.1 IC50
# T2 construct: GST (N); purchased Sigma
# T2 sequence (P15056 416-766): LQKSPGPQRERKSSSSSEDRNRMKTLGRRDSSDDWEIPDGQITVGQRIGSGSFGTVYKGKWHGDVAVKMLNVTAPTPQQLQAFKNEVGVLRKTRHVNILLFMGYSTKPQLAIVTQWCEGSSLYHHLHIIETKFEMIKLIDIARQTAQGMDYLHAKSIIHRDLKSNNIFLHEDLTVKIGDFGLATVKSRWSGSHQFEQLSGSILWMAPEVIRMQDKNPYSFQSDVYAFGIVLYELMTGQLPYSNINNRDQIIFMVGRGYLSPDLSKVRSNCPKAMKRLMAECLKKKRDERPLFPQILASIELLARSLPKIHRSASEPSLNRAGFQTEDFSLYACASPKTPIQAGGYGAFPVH
# How it was run: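 Reaction rates over the 4–5 h window of a continuous 6 h, 30 °C read were converted to percent inhibition and fitted for IC50. B-Raf (0.13 nM) phosphorylated 30.1 nM MEK with 1 mM ATP; ADP coupled via PK/LDH to NADH loss at 340 nm, 1% DMSO final.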
# [3] = target: T3, B-Raf (V600E) kinase (Homo sapiens, UniProt P15056, V600E); assay: Biochemical assay for B-Raf (V600E).1 (coupled pyruvate kinase/lactate dehydrogenase); conditions: read-out: BRAF V600E.1 IC50
# T3 construct: B-Raf (V600E) residues 416-766 with a; GST (N); purchased SignalChem
# T3 sequence (P15056 416-766 V600E): as the sequence (P15056 416-766) above, with V185E counted along it
# How it was run: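 IC50 came from four-parameter sigmoidal fits of percent inhibition, using reaction rates over 3-4 h. Continuous A340 reading (6 h, 30 °C) of a pyruvate kinase/lactate dehydrogenase-coupled reaction: B-Raf V600E 0.03 nM, MEK 30.1 nM, ATP 1 mM, Tris pH 7.5, 1% DMSO.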
# [4] = tested on: Miapaca-2 cells; assay: MiaPaca-2 cell proliferation assay (1), resazurin, 96-well; type: cell-based; conditions: Homo sapiens, MIA PaCa-2, inhibition of cell proliferation
# How it was run: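 Three thousand cells per well in DMEM with 10% FBS and 2.5% horse serum exposed to serially diluted compound in triplicate for 67-72 h at 37 °C, 5% CO2. Viability by resazurin (additional 5-6 h), fluorescence ex 540/em 600 nm; IC50 calculated.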
# T1 sequence (P10398 with tags, fused parts or gaps Y301D/Y302D): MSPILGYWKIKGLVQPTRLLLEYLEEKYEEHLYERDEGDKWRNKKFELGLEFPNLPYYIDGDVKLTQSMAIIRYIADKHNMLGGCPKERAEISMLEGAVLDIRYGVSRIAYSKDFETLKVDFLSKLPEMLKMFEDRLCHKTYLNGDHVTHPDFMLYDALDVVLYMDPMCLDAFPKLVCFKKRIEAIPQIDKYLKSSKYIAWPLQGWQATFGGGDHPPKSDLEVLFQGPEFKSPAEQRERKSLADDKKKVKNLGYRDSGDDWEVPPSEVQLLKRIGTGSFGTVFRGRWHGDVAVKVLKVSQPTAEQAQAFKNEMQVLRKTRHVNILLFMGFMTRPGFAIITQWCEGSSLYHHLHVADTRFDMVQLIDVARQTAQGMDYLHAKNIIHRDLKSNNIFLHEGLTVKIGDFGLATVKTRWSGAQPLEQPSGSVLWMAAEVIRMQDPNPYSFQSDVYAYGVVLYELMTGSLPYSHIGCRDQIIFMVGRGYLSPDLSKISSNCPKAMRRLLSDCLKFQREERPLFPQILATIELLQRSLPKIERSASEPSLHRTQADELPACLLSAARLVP
Compound,IC50 [1] [nM],IC50 [2] [nM],IC50 [3] [nM],IC50 [4] [nM]
Cc1ccc(NC(=O)NCCC(C)(C)C)cc1-c1ccnc(N2CCOCC2)c1 [Example 18],> 1000,≤ 100,≤ 100,1000 to 10000
Cc1cc(F)c(NC(=O)NCCC(C)(C)C#N)cc1-c1cc(N2CCOCC2)nc(N2CCOCC2)c1 [Example 22],> 1000,100 to 500,≤ 100,1000 to 10000
Cc1cc(F)c(NC(=O)NCCC2(C(F)(F)F)CC2)cc1-c1cc(N2CCOCC2)nc(N2CCOCC2)c1 [Example 23],> 1000,≤ 100,≤ 100,1000 to 10000
Cc1cc(F)c(NC(=O)NCCC2(C(F)(F)F)CC2)cc1-c1cc(OCCO)nc(C2CCOCC2)c1 [Example 24],> 1000,≤ 100,≤ 100,1000 to 10000
CC(=O)Nc1cc(-c2cc(-c3cc(NC(=O)NCCC4(C)CC4)c(F)cc3C)cc(OCCO)n2)ccn1 [Example 33],100 to 500,≤ 100,≤ 100,100 to 500
Cc1cc(F)c(NC(=O)NCCC2(C)CC2)cc1-c1cc(OCC(C)(C)O)nc(-c2ccncc2)c1 [Example 34],> 1000,≤ 100,≤ 100,1000 to 10000
COC(C)(C)CCNC(=O)Nc1ccc(C)c(-c2cc(-c3cnn(C)c3)nc(N3CCOCC3)c2)c1 [Example 38],> 1000,≤ 100,≤ 100,1000 to 10000
Cc1ccc(NC(=O)Nc2cn(C)nc2C(F)(F)F)cc1-c1cc(OCCO)nc(N2CCOCC2)c1 [Example 42],> 1000,> 1000,≤ 100,1000 to 10000
Cc1ccc(NC(=O)Nc2cnc(C(F)(F)F)s2)cc1-c1cc(OCCO)nc(N2CCOCC2)c1 [Example 43],> 1000,100 to 500,≤ 100,100 to 500
CC(=O)Nc1cc(-c2cc(-c3cc(NC(=O)NC4CC(C)(C)C4)c(F)cc3C)cc(OCCO)n2)ccn1 [Example 47],100 to 500,≤ 100,≤ 100,500 to 1000
CC(=O)Nc1cc(-c2cc(-c3cc(NC(=O)Nc4ccc(C(F)(F)F)cc4)cnc3C)ccn2)ccn1 [Example 48],> 1000,≤ 100,≤ 100,1000 to 10000
CC(=O)Nc1cc(-c2cc(-c3cc(NC(=O)N[C@H]4C[C@](C)(F)C4)ccc3C)cc(OCCO)n2)ccn1 [Example 49],100 to 500,≤ 100,≤ 100,1000 to 10000
Cc1ccc(NC(=O)N[C@H]2C[C@](C)(F)C2)cc1-c1cc(OCCO)nc(-c2ccnc(NC(=O)CN(C)C)c2)c1 [Example 50],> 1000,≤ 100,≤ 100,1000 to 10000
COC(C)(C)CCNC(=O)Nc1cc(-c2cnnc(-c3ccnc(NC(=O)C4CC4)c3)c2)c(C)cc1F [Example 173],> 1000,≤ 100,≤ 100,–
COC(=O)Nc1cc(-c2nc(OCCO)cc(-c3cc(NC(=O)NC4CC(C)(C)C4)cnc3C)n2)ccn1 [Example 174],> 1000,100 to 500,≤ 100,–
CC(=O)Nc1cc(-c2cc(-c3cc(NC(=O)NCCC4(C)CC4)c(F)cc3C)cc(NCCO)n2)ccn1 [Example 175],100 to 500,≤ 100,≤ 100,–
COC[C@H]1CCN(C(=O)Nc2cnc(C)c(-c3ccnc(-c4ccnc(NC(=O)OC)c4)c3)c2)C1 [Example 176],> 1000,> 1000,≤ 100,–
CNC(=O)c1cc(-c2cnnc(-c3cc(NC(=O)N4CC[C@H](OC)C4)ccc3C)c2)ccn1 [Example 177],> 1000,> 1000,100 to 500,–
CNC(=O)c1cc(-c2cnnc(-c3cc(NC(=O)N4CCC5(CC5)C4)ccc3C)c2)ccn1 [Example 178],> 1000,> 1000,≤ 100,–
COC[C@@H]1CCN(C(=O)Nc2cnc(C)c(-c3ccnc(-c4ccnc(NC(=O)OC)c4)c3)c2)C1 [Example 179],> 1000,> 1000,≤ 100,–
CNC(=O)c1cc(-c2cnnc(-c3cc(NC(=O)N4CCC(C(C)(C)C)C4)ccc3C)c2)ccn1 (stereo not shown) [Example 180],> 1000,500 to 1000,≤ 100,–
CNC(=O)c1cc(-c2cnnc(-c3cc(NC(=O)N4CC[C@@H](OC)C4)ccc3C)c2)ccn1 [Example 181],> 1000,> 1000,100 to 500,–

Compound,IC50 [1] [nM],IC50 [2] [nM],IC50 [3] [nM],IC50 [4] [nM]
CNC(=O)c1cc(-c2cnnc(-c3cc(NC(=O)N4CC[C@@H](OC(F)(F)F)C4)ccc3C)c2)ccn1 [Example 182],> 1000,500 to 1000,≤ 100,–
CNC(=O)c1cc(-c2cnnc(-c3cc(NC(=O)N4CCC(C(C)(C)C)C4)cnc3C)c2)ccn1 (stereo not shown) [Example 184],> 1000,> 1000,≤ 100,–
COC(=O)Nc1cc(-c2cnnc(-c3cc(NC(=O)N4CCC(C(C)(C)C)C4)ccc3C)c2)ccn1 (stereo not shown) [Example 185],> 1000,100 to 500,≤ 100,–
COC(=O)Nc1cc(-c2cnnc(-c3cc(NC(=O)N4CCC(CC(F)(F)F)C4)ccc3C)c2)ccn1 (stereo not shown) [Example 186],> 1000,≤ 100,≤ 100,–
COC(=O)Nc1cc(-c2cc(-c3cc(NC(=O)NCCC4(C)CC4)ccc3F)cc(OCCO)n2)ccn1 [Example 187],> 1000,≤ 100,100 to 500,–
COC(=O)Nc1cc(-c2cc(-c3cc(NC(=O)NCCC4(C)CC4)c(F)cc3F)cc(OCCO)n2)ccn1 [Example 188],> 1000,≤ 100,≤ 100,–
COC(=O)Nc1cc(-c2nccc(-c3cc(NC(=O)N4CCC(C(F)(F)F)C4)ccc3C)n2)ccn1 (stereo not shown) [Example 193],> 1000,≤ 100,100 to 500,–
Cc1ccc(NC(=O)N2CCC(CC(F)(F)F)C2)cc1-c1cncc(-c2cc(NC(=O)C3CC3)ncn2)c1 (stereo not shown) [Example 194],> 1000,≤ 100,≤ 100,–
Cc1ccc(NC(=O)N2CC[C@@H](C(F)(F)F)C2)cc1-c1cncc(-c2ccnc(NC(=O)C3CC3)c2)c1 [Example 196],> 1000,≤ 100,≤ 100,–
Cc1ccc(NC(=O)N2CC[C@H](C(F)(F)F)C2)cc1-c1cncc(-c2ccnc(NC(=O)C3CC3)c2)c1 [Example 197],500 to 1000,≤ 100,≤ 100,–
COC(=O)Nc1cc(-c2cncc(-c3cc(NC(=O)N4CCCCCC4)ccc3C)c2)ccn1 [Example 202],> 1000,500 to 1000,100 to 500,–
COC(=O)Nc1cc(-c2cnnc(-c3cc(NC(=O)N4CCC(C(C)(C)O)C4)ccc3C)c2)ccn1 (stereo not shown) [Example 206],> 1000,500 to 1000,> 1000,–
Cc1ccc(NC(=O)N2CCC(CC(F)(F)F)C2)cc1-c1cncc(-c2cc(N)ncn2)c1 (stereo not shown) [Example 207],> 1000,100 to 500,500 to 1000,–
COC(=O)Nc1cc(-c2cncc(-c3cc(NC(=O)N4CCCCC4)ccc3C)c2)ccn1 [Example 208],> 1000,> 1000,> 1000,–
Cc1ccc(NC(=O)N2CCC(F)(F)C2)cc1-c1cncc(-c2cc(NC(=O)C3CC3)ncn2)c1 [Example 209],> 1000,≤ 100,100 to 500,–
Cc1ccc(NC(=O)N2CC[C@@H](C(F)(F)F)C2)cc1-c1cncc(-c2cc(NC(=O)C3CC3)ncn2)c1 [Example 210],500 to 1000,≤ 100,≤ 100,–
COC(=O)Nc1cc(-c2cncc(-c3cc(NC(=O)N4CC[C@H](C(F)(F)F)C4)ccc3C)c2)ccn1 [Example 211],> 1000,≤ 100,≤ 100,–
COC(=O)Nc1cc(-c2cncc(-c3cc(NC(=O)N4CCCC4)ccc3C)c2)ccn1 [Example 213],> 1000,> 1000,500 to 1000,–
Cc1ccc(NC(=O)N2CCC3(CC3)C2)cc1-c1cncc(-c2cc(NC(=O)C3CC3)ncn2)c1 [Example 218],> 1000,≤ 100,≤ 100,–
Cc1ccc(NC(=O)N2CC[C@@H](C)C2)cc1-c1cncc(-c2cc(NC(=O)C3CC3)ncn2)c1 [Example 219],> 1000,≤ 100,100 to 500,–
COC(=O)Nc1cc(-c2cc(-c3cc(NC(=O)N4CCC(C(F)(F)F)C4)ccc3C)cc(OCCO)n2)ccn1 (stereo not shown) [Example 222],> 1000,≤ 100,≤ 100,–
COC(=O)Nc1cc(-c2cc(-c3cc(NC(=O)N4CC[C@H](C(F)(F)F)C4)ccc3C)nc(C)n2)ccn1 [Example 223],> 1000,≤ 100,> 1000,–
